Measurements taken from patent publication US20260102383A1, “LPAR1 Inhibitors” (AbbVie Inc., priority 2024, published 2026).

molecular target: T1, human LPAR1 (Homo sapiens, UniProt Q92633); assay: Arrestin assay (Arrestin Reporter EDG2-bla U2OS), inhibition of LPA-stimulated signal; type: cell-based; conditions: TangoEDG2-bla U2OS cells expressing human LPAR1; 0.25 μM LPA; read-out: Arrestin Reporter EDG2-bla U2OS Human Merged IC50
T1 construct: host or cells: TangoEDG2-bla U2OS cells
Description: The inhibitory activity of compounds 15, 62, 77, 84 and 169 against LPAR1 was measured using an Arrestin assay in U2OS cells expressing human LPAR1.
FreeStyle media was warmed in a 37° C. water bath. Cryo-preserved vial(s) of TangoEDG2-bla U2OS cells were rapidly thawed in a 37° C. water bath. The thawed cells were added to FreeStyle media and cells were pelleted at 300×g for 5 minutes. The supernatant was aspirated, and cells were resuspended in FreeStyle media. Cell density was adjusted to 0.25×10^6 cells/mL. Cells (1×10^4 in 40 μL) were added to each well of Greiner 384 well black cell plate(s). Cell plate(s) were placed in a humidified 37° C./5% CO2 incubator for 18-20 hours. Dilutions of test compound were prepared at 6× final concentration; 12-point, 3-fold dilutions using HH Buffer (1×HBSS plus 20 mM HEPES). The 6× test compound was then added to the cell plate(s) at 10 μL/well. The final concentration ranged from 10 μM to 0.00006 μM. Cell plate(s) were incubated in a humidified 37° C./5% CO2 incubator for 1 hour. During the incubation, 6×LPA was prepared at 1.5 μM in 0.1% BSA HH Buffer. After the 1-hour incubation of test compound with cells, the LPA was added to the cell plate(s) at 10 μL/well (final LPA concentration of 0.25 μM). Cell plate(s) were returned to a humidified 37° C./5% CO2 incubator for 3 hours. The Development solution was made up per the LiveBLAzerFRET B/G kit protocol. The Development solution was added to the cell plate(s) at 10 μL/well. Cell plates were incubated in the dark at room temperature for 2 hours. Plate(s) were read on an Envision Plate Reader (Perkin Elmer) to read fluorescence; excitation at 409 nm with emission at 460 nm and 530 nm. Raw Data for analysis is the ratio of emission at 460 nm divided by emission 530 nm. The formula used to determine % Inhibition is as follows (1−(Raw Data−Low Average)/(High Average−Low Average))*100. Percent Inhibition was plotted to determine IC50 value with GraphPad Prism 9.5.0 software using Variable slope 4-parameter curve fit analysis.
Additional compounds of the present disclosure were synthesized in a manner similar to the compounds described above and understood by a person of ordinary skill in the art. The inhibitory activity of the compounds of the present disclosure against LPAR1 was measured using the above-referenced Arrestin Assay protocol.

T1 sequence (Q92633 whole entry): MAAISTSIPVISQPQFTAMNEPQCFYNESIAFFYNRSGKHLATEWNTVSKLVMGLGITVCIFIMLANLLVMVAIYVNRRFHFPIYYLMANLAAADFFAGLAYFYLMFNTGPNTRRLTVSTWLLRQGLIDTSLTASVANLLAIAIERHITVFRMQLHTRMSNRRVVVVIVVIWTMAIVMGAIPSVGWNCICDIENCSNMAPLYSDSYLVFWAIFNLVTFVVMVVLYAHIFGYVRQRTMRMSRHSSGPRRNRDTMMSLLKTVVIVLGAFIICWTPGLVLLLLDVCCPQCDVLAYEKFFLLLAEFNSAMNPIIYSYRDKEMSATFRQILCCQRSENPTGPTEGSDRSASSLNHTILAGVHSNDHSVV

How did the IC50 turn out when CC(C)c1ccnn1C1(C(=O)Nc2ccc(Cl)cc2OC(F)F)CCN(CC2(C(=O)O)CCN(C(=O)OC(C)(C)C)CC2)CC1 [Compound 4, 1-tert-butoxycarbonyl-4-[[4-[[4-chloro-2-(difluoromethoxy)phenyl]carbamoyl]-4-(5-isopropylpyrazol-1-yl)-1-piperidyl]methyl] piperidine-4-carboxylic acid] was run?
The IC50 was 22.8 nM.

For CC(=O)N1CCC(CN2CCC(C(=O)Nc3ccc(Cl)cc3OC(F)F)(n3nccc3C(C)C)CC2)(C(=O)O)CC1 [Compound 5, 1-acetyl-4-[[4-[[4-chloro-2-(difluoromethoxy)phenyl]carbamoyl]-4-(5-isopropylpyrazol-1-yl)-1-piperidyl]methyl]piperidine-4-carboxylic acid], which IC50 is on record?
The IC50 was 87.3 nM.

For CCOC(=O)N1CCC(CN2CCC(C(=O)Nc3ccc(Cl)cc3OC(F)F)(n3nccc3C(C)C)CC2)(C(=O)O)CC1 [Compound 6, 4-[[4-[[4-chloro-2-(difluoromethoxy)phenyl]carbamoyl]-4-(5-isopropylpyrazol-1-yl)-1-piperidyl]methyl]-1-ethoxycarbonyl-piperidine-4-carboxylic acid], which IC50 is on record?
The IC50 was 24.7 nM.

C=CC(=O)N1CCC(CN2CCC(C(=O)Nc3ccc(Cl)cc3OC(F)F)(n3nccc3C(C)C)CC2)(C(=O)O)CC1 [Compound 7, 4-[[4-[[4-chloro-2-(difluoromethoxy)phenyl]carbamoyl]-4-(5-isopropylpyrazol-1-yl)-1-piperidyl]methyl]-1-prop-2-enoyl-piperidine-4-carboxylic acid] was tested. Which IC50 did it give?
Its IC50 is 50.8 nM.

How did the IC50 turn out when CC(C)c1ccnn1C1(C(=O)Nc2ccc(Cl)cc2OC(F)F)CCN(CC2(C(=O)O)CCN(C(=O)OCc3ccccc3)CC2)CC1 [Compound 8, 1-benzyloxycarbonyl-4-[[4-[[4-chloro-2-(difluoromethoxy)phenyl]carbamoyl]-4-(5-isopropylpyrazol-1-yl)-1-piperidyl]methyl]piperidine-4-carboxylic acid] was run?
The IC50 was 3.31 nM.

How did the IC50 turn out when COC(=O)CC(=O)N1CCC(CN2CCC(C(=O)Nc3ccc(Cl)cc3OC(F)F)(n3nccc3C(C)C)CC2)(C(=O)O)CC1 [Compound 9, 4-[[4-[[4-chloro-2-(difluoromethoxy)phenyl]carbamoyl]-4-(5-isopropylpyrazol-1-yl)-1-piperidyl]methyl]-1-(3-methoxy-3-oxo-propanoyl)piperidine-4-carboxylic acid] was run?
The IC50 was 128 nM.

For CC(C)c1ccnn1C1(C(=O)Nc2ccc(Cl)cc2OC(F)F)CCN(CC2(C(=O)O)CCN(C(=O)Oc3ccc(F)cc3)CC2)CC1 [Compound 10, 4-[[4-[[4-chloro-2-(difluoromethoxy)phenyl]carbamoyl]-4-(5-isopropylpyrazol-1-yl)-1-piperidyl]methyl]-1-(4-fluorophenoxy)carbonyl-piperidine-4-carboxylic acid], which IC50 is on record?
The IC50 was 7.53 nM.

How did the IC50 turn out when CC(C)c1ccnn1C1(C(=O)Nc2ccc(Cl)cc2OC(F)F)CCN(CC(C(=O)O)C2CCOCC2)CC1 (centres unmarked) [Compound 11, 3-[4-[[4-chloro-2-(difluoromethoxy)phenyl]carbamoyl]-4-(5-isopropylpyrazol-1-yl)-1-piperidyl]-2-tetrahydropyran-4-yl-propanoic acid] was run?
The IC50 was 52.6 nM.

Which IC50 does the source give for CC(C)c1ccnn1C1(C(=O)Nc2ccc(Cl)cc2OC(F)F)CCN(CC2(C(=O)O)CCCC2)CC1 [Compound 12, 1-[[4-[[4-chloro-2-(difluoromethoxy)phenyl]carbamoyl]-4-(5-isopropylpyrazol-1-yl)-1-piperidyl]methyl] cyclopentanecarboxylic acid] here?
The IC50 was 11.4 nM.

How did the IC50 turn out when CC(C)c1ccnn1C1(C(=O)Nc2ccc(Cl)cc2OC(F)F)CCN(CC2(C(=O)O)CCCO2)CC1 (centres unmarked) [Compound 13, 2-[[4-[[4-chloro-2-(difluoromethoxy)phenyl]carbamoyl]-4-(5-isopropylpyrazol-1-yl)-1-piperidyl]methyl] tetrahydrofuran-2-carboxylic acid] was run?
The IC50 was 11.2 nM.

CC(C)c1ccnn1C1(C(=O)Nc2ccc(Cl)cc2OC(F)F)CCN(CC2(C(=O)O)CCOC2)CC1 (centres unmarked) [Compound 16, 3-[[4-[[4-chloro-2-(difluoromethoxy)phenyl]carbamoyl]-4-(5-isopropylpyrazol-1-yl)-1-piperidyl]methyl] tetrahydrofuran-3-carboxylic acid] was tested. Which IC50 did it give?
Its IC50 is 29.8 nM.

How did the IC50 turn out when CC(C)c1ccnn1C1(C(=O)Nc2ccc(Cl)cc2OC(F)F)CCN(CC(C(=O)O)c2cccnc2)CC1 (centres unmarked) [Compound 17, 3-[4-[[4-chloro-2-(difluoromethoxy)phenyl]carbamoyl]-4-(5-isopropylpyrazol-1-yl)-1-piperidyl]-2-(3-pyridyl)propanoic acid] was run?
The IC50 was 14.5 nM.

CC(C)c1ccnn1C1(C(=O)Nc2ccc(Cl)cc2OC(F)F)CCN(CC2(C(=O)O)CCN(c3cnccn3)CC2)CC1 [Compound 18, 4-[[4-[[4-chloro-2-(difluoromethoxy)phenyl]carbamoyl]-4-(5-isopropylpyrazol-1-yl)-1-piperidyl]methyl]-1-pyrazin-2-yl-piperidine-4-carboxylic acid] was tested. Which IC50 did it give?
The IC50 was 11 nM.

COc1ccc(C(CN2CCC(C(=O)Nc3ccc(Cl)cc3OC(F)F)(n3nccc3C(C)C)CC2)C(=O)O)cc1 (centres unmarked) [Compound 19, 3-[4-[[4-chloro-2-(difluoromethoxy)phenyl]carbamoyl]-4-(5-isopropylpyrazol-1-yl)-1-piperidyl]-2-(4-methoxyphenyl) propanoic acid] was tested. Which IC50 did it give?
Its IC50 is 9.56 nM.

For CC(C)c1ccnn1C1(C(=O)Nc2ccc(Cl)cc2OC(F)F)CCN(C[C@@]2(C(=O)O)CCCO2)CC1 [Compound 20, (2R)-2-[[4-[[4-chloro-2-(difluoromethoxy)phenyl]carbamoyl]-4-(5-isopropylpyrazol-1-yl)-1-piperidyl]methyl] tetrahydrofuran-2-carboxylic acid], which IC50 is on record?
The IC50 was 28.8 nM.

CC(C)c1ccnn1C1(C(=O)Nc2ccc(Cl)cc2OC(F)F)CCN(C[C@]2(C(=O)O)CCCO2)CC1 [Compound 21, (2S)-2-[[4-[[4-chloro-2-(difluoromethoxy)phenyl]carbamoyl]-4-(5-isopropylpyrazol-1-yl)-1-piperidyl]methyl] tetrabydrofuran-2-carboxylic acid] was tested. Which IC50 did it give?
Its IC50 is 14.6 nM.

Which IC50 does the source give for COc1cccc(C(CN2CCC(C(=O)Nc3ccc(Cl)cc3OC(F)F)(n3nccc3C(C)C)CC2)C(=O)O)c1 (centres unmarked) [Compound 22, 3-[4-[[4-chloro-2-(difluoromethoxy)phenyl]carbamoyl]-4-(5-isopropylpyrazol-1-yl)-1-piperidyl]-2-(3-methoxyphenyl)propanoic acid] here?
Its IC50 is 10.1 nM.

CC(C)c1ccnn1C1(C(=O)Nc2ccc(Cl)cc2OC(F)F)CCN(C[C@@]2(C(=O)O)CCOC2)CC1 [Compound 24, (3S)-3-[[4-[[4-chloro-2-(difluoromethoxy)phenyl]carbamoyl]-4-(5-isopropylpyrazol-1-yl)-1-piperidyl]methyl] tetrabydrofuran-3-carboxylic acid] was tested. Which IC50 did it give?
The IC50 was 24.7 nM.

CC(C)c1ccnn1C1(C(=O)Nc2ccc(Cl)cc2OC(F)F)CCN(C[C@H](C(=O)O)c2cccnc2)CC1 [Compound 25, (2R)-3-[4-[[4-chloro-2-(difluoromethoxy)phenyl]carbamoyl]-4-(5-isopropylpyrazol-1-yl)-1-piperidyl]-2-(3-pyridyl)propanoic acid] was tested. Which IC50 did it give?
Its IC50 is 28 nM.

How did the IC50 turn out when CC(C)c1ccnn1C1(C(=O)Nc2ccc(Cl)cc2OC(F)F)CCN(C[C@@H](C(=O)O)c2cccnc2)CC1 [Compound 26, (2S)-3-[4-[[4-chloro-2-(difluoromethoxy)phenyl]carbamoyl]-4-(5-isopropylpyrazol-1-yl)-1-piperidyl]-2-(3-pyridyl)propanoic acid] was run?
The IC50 was 24.5 nM.
